The values below come from US20250090875A9, “IMMUNOSTIMULATORY COMPOUNDS AND CONJUGATES” (Seagen Inc., priority 2021, published 2025).

For one test, the system named is CT26 tumors. It counts as in vivo. Conditions: targeted ADC, intraperitoneal, every 7 days, 3 doses; for mice surviving at the end of the study: 6 mice per group. The text has this: This example covers in vivo assessments of anti-tumor activity of ADCs with TLR7/8 agonists. An in vivo syngeneic system was used to assess the ability of the ADCs having TLR ⅞ agonists as the payload to induce immune responses and drive an anti-tumor immune response using a subcutaneous, heterotopic mouse colon carcinoma model (a CT26 system). Female Balb/c mice were implanted with 1×10^5 CT26 cells sub-cutaneously in the flank on day 0. When mean tumor size of 100 mm^3 (measured using the formula: Volume (mm^3)=0.5*Length*Width^2 where length is the longer dimension) was reached, the mice were randomized into treatment groups of 6 mice per group. Animals were then treated intraperitoneally with the indicated treatment every 7 days, for 3 doses total. Stock concentrations of the ADCs were diluted to the appropriate concentration and injected into animals in 100 μL volumes. Tumor length and width and mouse weights were measured throughout the study and tumor volume was calculated using the formula above. Animals were followed until tumor volume reached 1000 mm^3, when animals were then euthanized.

The subject of a further test is Renca tumors. Nature of the test: Renca kidney carcinoma model in Balb/c mice. The format is in vivo, mouse. Conditions: targeted or non-targeted conjugates, N1 vs C4 linkage, different linkers, with or without PEG. On the procedure:
The difference in anti-tumor activity of the S18a and S18b conjugates was also assessed in the Renca kidney model. In this model, mice bearing Renca tumors were treated q7dx3 when tumors reached ˜100 mm^3 as indicated, and followed for mean group tumor growth (FIG. 14, top) and survival (FIG. 14, bottom) over time.
This example covers cancer treatment with EphA2 targeted TLR agonists. […] Balb/c mice were implanted with Renca tumor cells and when cells reached 100 mm^3 they were treated Q7dx3 treatments with 2.4 mg/kg of the indicated IDC, either non targeting isotype or an EphA2 targeting mAb.

Another test concerns primary human PBMCs. Nature of the test: Cytokine induction in primary human PBMCs by small molecule TLR7/8 agonists (Luminex). The settings on record: for potency and activity of cytokine induction (IL6, TNFα, MCP1, IP10): ranking; for potency to activate human PBMCs (IL6, IL1b, MIP1b, TNFα): compared with S18a, FIG. 29. The format is cell-based. On the procedure: This example covers dose dependent human immune cell activation by small molecule TLR7/8 agonists. Primary human PBMCs were isolated from peripheral whole blood from human donors and were subjected to treatment with increasing concentrations of the agonists diluted in PBS. Cell culture supernatants were harvested 24 h after treatment and analyzed for induction of cytokines via multiplex ELISAs (Luminex).
Several small molecule TLR7/8 agonists were assessed for their ability to activate human immune cells in a dose dependent manner. Primary human PBMCs were isolated from peripheral whole blood from human donors and were subjected to treatment with increasing concentrations of the agonists diluted in PBS. 24 h after treatment cell culture supernatants were harvested and analyzed for induction of cytokines via multiplex ELISAs (Luminex).

Entries after “also recorded” stand apart in the source; their conditions may differ.

Turning to `CCCCc1nc2c(N)nc3cc(C(=O)OC)ccc3c2n1Cc1ccc(CNC(=O)OCc2ccc(O[C@H]3O[C@H](CO)[C@@H](O)[C@H](O)[C@@H]3O)c(NC(=O)CCNC(=O)[C@H](CCCCNC(=O)CCOCCOCCOCCOCCOCCOCCOCCOCCOCCOCCOCCOC)NC(=O)CCN3C(=O)C=CC3=O)c2)cc1` [Compound 4, methyl 4-amino-2-butyl-1-(4-(((((3-((S)-44-(3-(2,5-dioxo-2,5-dihydro-1H-pyrrol-1-yl)propanamido)-38,45-dioxo-2,5,8,11,14,17,20,23,26,29,32,35-dodecaoxa-39,46-diazanonatetracontan-49-amido)-4-(((2R,3 S,4 S, 5 S,6R)-3,4,5-trihydroxy-6-(hydroxymethyl)tetrahydro-2H-pyran-2-yl)oxy)benzyl)oxy)carbonyl)amino)methyl)benzyl)-1H-imidazo[4,5-c]quinoline-7-carboxylate], in the test with CT26 tumors, the “tumor growth delay and survival” value is “some tumor growth delay and survival benefit”; the “mice surviving at the end of the study” value is on record as “⅙”.
In the case of `CCCCc1nc2c(N)nc3cc(C(=O)OC)ccc3c2n1CCCCCNC(=O)OCc1ccc(O[C@H]2O[C@H](CO)[C@@H](O)[C@H](O)[C@@H]2O)c(NC(=O)CCNC(=O)[C@H](CCCCNC(=O)CCOCCOCCOCCOCCOCCOCCOCCOCCOCCOCCOCCOC)NC(=O)CCN2C(=O)C=CC2=O)c1` [Compound 7, Methyl 4-amino-2-butyl-1-(5-((((3-((S)-44-(3-(2,5-dioxo-2,5-dihydro-1H-pyrrol-1-yl)propanamido)-38,45-dioxo-2,5,8,11,14,17,20,23,26,29,32,35-dodecaoxa-39,46-diazanonatetracontan-49-amido)-4-(((2R,3 S,4 S, 5 S,6R)-3,4,5-trihydroxy-6-(hydroxymethyl)tetrahydro-2H-pyran-2-yl)oxy)benzyl)oxy)carbonyl)amino)pentyl)-1H-imidazo[4,5-c]quinoline-7-carboxylate], in the test with CT26 tumors, the “tumor growth delay and survival” value is “some tumor growth delay over the untreated group”; the “mice surviving at the end of the study” value was “no animals ultimately survived”.
On to `CCCCc1nc2c(N)nc3cc(C(=O)O)ccc3c2n1CCCCCNC(=O)OCc1ccc(O[C@H]2O[C@H](CO)[C@@H](O)[C@H](O)[C@@H]2O)c(NC(=O)CCNC(=O)[C@H](CCCCNC(=O)CCOCCOCCOCCOCCOCCOCCOCCOCCOCCOCCOCCOC)NC(=O)CCN2C(=O)C=CC2=O)c1` [Compound 8, 4-amino-2-butyl-1-(5-((((3-((S)-44-(3-(2,5-dioxo-2,5-dihydro-1H-pyrrol-1-yl)propanamido)-38,45-dioxo-2,5,8,11,14,17,20,23,26,29,32,35-dodecaoxa-39,46-diazanonatetracontan-49-amido)-4-(((2R,3 S,4 S, 5 S,6R)-3,4,5-trihydroxy-6-(hydroxymethyl)tetrahydro-2H-pyran-2-yl)oxy)benzyl)oxy)carbonyl)amino)pentyl)-1H-imidazo[4,5-c]quinoline-7-carboxylic acid], for which, in the test with CT26 tumors, the “tumor growth delay and survival” value is “greatly increased tumor growth delay and survival”.
On to `CCCCc1nc2c(N)nc3cc(C(=O)O)ccc3c2n1Cc1ccc(C[N+](C)(C)Cc2ccc(O[C@H]3O[C@H](CO)[C@@H](O)[C@H](O)[C@@H]3O)c(NC(=O)CCNC(=O)[C@H](CCCCNC(=O)CCOCCOCCOCCOCCOCCOCCOCCOCCOCCOCCOCCOC)NC(=O)CCN3C(=O)C=CC3=O)c2)cc1` [Compound 9, N-(4-((4-amino-2-butyl-7-carboxy-1H-imidazo[4,5-c]quinolin-1-yl)methyl)benzyl)-1-(3-((S)-44-(3-(2,5-dioxo-2,5-dihydro-1H-pyrrol-1-yl)propanamido)-38,45-dioxo-2,5,8,11,14,17,20,23,26,29,32,35-dodecaoxa-39,46-diazanonatetracontan-49-amido)-4-(((2R,3 S,4 S, 5 S,6R)-3,4,5-trihydroxy-6-(hydroxymethyl)tetrahydro-2H-pyran-2-yl)oxy)phenyl)-N,N-dimethylmethanaminium], for which, in the test on CT26 tumors, the “tumor growth delay and survival” value is “potent tumor growth delay and a long-term overall survival benefit”. For the same molecule, the “anti-tumor activity (tumor volume, survival)” value in the test on Renca tumors was “greatest potency; also recorded: superior potency”.
`CCCCc1nc2c(N)nc3cc(C(=O)O)ccc3c2n1Cc1ccc(C[N+](C)(C)Cc2ccc(O[C@H]3O[C@H](CO)[C@@H](O)[C@H](O)[C@@H]3O)c(NC(=O)CCNC(=O)CCN3C(=O)C=CC3=O)c2)cc1` [Compound 14, N-(4-((4-amino-2-butyl-7-carboxy-1H-imidazo[4,5-c]quinolin-1-yl)methyl)benzyl)-1-(3-(3-(3-(2,5-dioxo-2,5-dihydro-1H-pyrrol-1-yl)propanamido)propanamido)-4-(((2R,3S,4S,5S,6R)-3,4,5-trihydroxy-6-(hydroxymethyl)tetrahydro-2H-pyran-2-yl)oxy)phenyl)-N,N-dimethylmethanaminium]: in the test on Renca tumors, the “anti-tumor activity (tumor volume, survival)” value is given as “greatest potency”.
For `CCCCc1nc2c(N)nc3cc(C(=O)O)ccc3c2n1CC(C)O` (centres unmarked) [S5b], in the test on primary human PBMCs (free drug, FIG. 3), the “IFNα, IL1β, MIP1β, TNFα induction, C7 carboxylic acid vs parent C7 methyl ester” value is “markedly lower potency and activity than its corresponding parent methyl ester compound”.
As for `CCCCc1nc2c(N)nc3cc(C(=O)OC)ccc3c2n1Cc1ccc(CN)cc1` [S8a], in the test with primary human PBMCs (single donor, 24 h, FIG. 1), the “concentration eliciting cytokine responses (IFNg, IL1β, MIP1β, TNFα)” value is less than 0.1 µM.
Consider `CCCCc1nc2c(N)nc3cc(C(=O)OC)ccc3c2n1Cc1ccc(CN2CCCC2)cc1` [S65a], for which, in the test on primary human PBMCs (free drug, FIG. 30), the “potency to induce MCP1 and IP10” value was “enhanced potency to induce MCP1 and IP10 compared to compounds S18a”; the “potency and activity of cytokine induction (IL6, TNFα, MCP1, IP10)” value (“potency and activity” below) was “other two most potent compounds”.
Take `CCCCc1nc2c(N)nc3cc(C(=O)OC)ccc3c2n1Cc1ccc(CN2CCOCC2)cc1` [S81a]: in the test with primary human PBMCs (free drug, FIG. 30), the “maximal level of IL6, MCP1 and IP10” value was “same maximal level of IL6, MCP1 and IP10 as the other compounds”; the “maximum level of IL10, IL1b or TNFα” value was “not able to reach the same maximum level”; the “potency and activity” value is “greater activity than compound S82a”. Also, the “TLR7 vs TLR8 binding profile” value in the test on primary human PBMCs (inferred from the cytokine profile) is on record as “TLR7 vs TLR8 skewed binding profile”.
As to `CCCCc1nc2c(N)nc3cc(C(=O)O)ccc3c2[nH]1` [S82b], the “potency and activity” value in the test on primary human PBMCs (free drug, FIG. 30) is “greater activity than compound S84a”.
`CCCCc1nc2c(N)nc3cc(C(=O)OC)ccc3c2n1Cc1ccc(CN(CC)CC)cc1` [S83a]: the “potency to activate human PBMCs (IL6, IL1b, MIP1b, TNFα)” value in the test on primary human PBMCs (free drug) was “slightly enhanced potency”. In the test with primary human PBMCs (free drug, FIG. 30), the “potency and activity” value is “highest maximal cytokine and potency to induce cytokine of all compounds tested”.
Turning to `CCCCc1nc2c(N)nc3cc(C(=O)OC)ccc3c2n1Cc1ccc(CN2CCCCC2)cc1` [S85a], the “potency to activate human PBMCs (IL6, IL1b, MIP1b, TNFα)” value in the test with primary human PBMCs (free drug) is “slightly decreased potency”.
